Source: ChEMBL document CHEMBL3885861, “Open TG-GATES”

Species on record: Rattus norvegicus
Experiment: Open TG-GATES - Regimen: Daily Repeat
Assay type: toxicity, organism-based, Sprague-Dawley
Design: regimen Daily Repeat, gender Male, age 6 weeks
Conditions: in vivo, po, 0 mg/kg, route gavage, dose level Control; for APTT / Bas / Eos / Fbg / Hb / Ht / Lym / MCH / MCHC / MCV / Mono / Neu / PT / Plat / RBC / Ret / WBC: tissue Blood; for KIDNEY_L / KIDNEY_R / KIDNEY_TOTAL: tissue Kidney; for LIVER: tissue Liver; for A/G / ALP / ALT / AST / BUN / CRE / Ca / Cl / DBIL / GLC / IP / K / LDH / Na / PL / RALB / TBIL / TC / TG / TP / gamma-GTP: tissue Plasma

## O=c1ccc2ccccc2o1 [COUMARIN]
72 h, time 3 day
  TERMINAL_BW: 197.7 g
  APTT: 16.2 s
  Bas: 0%
  Eos: 1.2%
  Fbg: 204.2 mg/dL
  Hb: 13.4 g/dL
  Ht: 40.7%
  Lym: 64.8%
  MCH: 21.6 pg
  MCHC: 32.8%
  MCV: 65.9 fL
  Mono: 9.8%
  Neu: 24.2%
  PT: 11.8 s
  Plat: 97.8 x10_4/uL
  RBC: 617.8 x10_4/ul
  Ret: 8%
  WBC: 95.9 x10_2/uL
  KIDNEY_L: 0.9 g
  KIDNEY_R: 0.9 g
  KIDNEY_TOTAL: 1.9 g
  LIVER: 9.7 g
  A/G: 2.1
  ALP: 849.4 IU/L
  ALT: 39.8 IU/L
  AST: 68.6 IU/L
  BUN: 15.2 mg/dL
  CRE: 0.5 mg/dL
  Ca: 10.7 mg/dL
  Cl: 104.8 meq/L
  DBIL: 0.036 mg/dL
  GLC: 204.6 mg/dL
  IP: 8 mg/dL
  K: 4.9 meq/L
  LDH: 87.4 IU/L
  Na: 138.8 meq/L
  PL: 134.6 mg/dL
  RALB: 3.8 g/dL
  TBIL: 0.3 mg/dL
  TC: 79.6 mg/dL
  TG: 58.6 mg/dL
  TP: 5.6 g/dL
  gamma-GTP: 1 IU/L
[…], time 7 day
  TERMINAL_BW: 227.5 g
  APTT: 16.5 s
  Bas: 0%
  Eos: 0.6%
  Fbg: 218.4 mg/dL
  Hb: 13.8 g/dL
  Ht: 41.6%
  Lym: 83.4%
  MCH: 21.3 pg
  MCHC: 33.2%
  MCV: 64.1 fL
  Mono: 4%
  Neu: 11.8%
  PT: 12 s
  Plat: 108.5 x10_4/uL
  RBC: 649.8 x10_4/ul
  Ret: 6.1%
  WBC: 145 x10_2/uL
  KIDNEY_L: 1 g
  KIDNEY_R: 1 g
  KIDNEY_TOTAL: 2 g
  LIVER: 11.4 g
  A/G: 2.2
  ALP: 954.6 IU/L
  ALT: 35.6 IU/L
  AST: 58 IU/L
  BUN: 17.8 mg/dL
  CRE: 0.6 mg/dL
  Ca: 10.6 mg/dL
  Cl: 104.8 meq/L
  DBIL: 0.014 mg/dL
  GLC: 189.8 mg/dL
  IP: 7.5 mg/dL
  K: 4.9 meq/L
  LDH: 79.6 IU/L
  Na: 138.6 meq/L
  PL: 142.6 mg/dL
  RALB: 3.9 g/dL
  TBIL: 0.3 mg/dL
  TC: 70 mg/dL
  TG: 108.8 mg/dL
  TP: 5.7 g/dL
  gamma-GTP: 1.4 IU/L
[…], time 14 day
  TERMINAL_BW: 286.1 g
  APTT: 16.7 s
  Bas: 0.2%
  Eos: 0.6%
  Fbg: 230.2 mg/dL
  Hb: 14.2 g/dL
  Ht: 42.9%
  Lym: 81%
  MCH: 20.6 pg
  MCHC: 33.2%
  MCV: 62 fL
  Mono: 7.4%
  Neu: 10.8%
  PT: 11.7 s
  Plat: 117.6 x10_4/uL
  RBC: 692.4 x10_4/ul
  Ret: 4.8%
  WBC: 114.9 x10_2/uL
  KIDNEY_L: 1.2 g
  KIDNEY_R: 1.2 g
  KIDNEY_TOTAL: 2.3 g
  LIVER: 14 g
  A/G: 2
  ALP: 840.4 IU/L
  ALT: 32.4 IU/L
  AST: 59 IU/L
  BUN: 17.2 mg/dL
  CRE: 0.6 mg/dL
  Ca: 10.8 mg/dL
  Cl: 106.2 meq/L
  DBIL: 0.08 mg/dL
  GLC: 192 mg/dL
  IP: 7.5 mg/dL
  K: 4.8 meq/L
  LDH: 84.8 IU/L
  Na: 139.4 meq/L
  PL: 165.8 mg/dL
  RALB: 4 g/dL
  TBIL: 0.3 mg/dL
  TC: 84 mg/dL
  TG: 104 mg/dL
  TP: 6 g/dL
  gamma-GTP: 1.4 IU/L
[…], time 28 day
  TERMINAL_BW: 359.5 g
  APTT: 17.8 s
  Bas: 0.2%
  Eos: 1.2%
  Fbg: 225 mg/dL
  Hb: 15.1 g/dL
  Ht: 45.2%
  Lym: 79.6%
  MCH: 19.6 pg
  MCHC: 33.4%
  MCV: 58.8 fL
  Mono: 5%
  Neu: 13.8%
  PT: 12 s
  Plat: 101 x10_4/uL
  RBC: 769 x10_4/ul
  Ret: 2.8%
  WBC: 128.8 x10_2/uL
  KIDNEY_L: 1.4 g
  KIDNEY_R: 1.4 g
  KIDNEY_TOTAL: 2.7 g
  LIVER: 16.1 g
  A/G: 1.7
  ALP: 705.8 IU/L
  ALT: 31.2 IU/L
  AST: 54.2 IU/L
  BUN: 18.8 mg/dL
  CRE: 0.6 mg/dL
  Ca: 10.7 mg/dL
  Cl: 106 meq/L
  DBIL: 0.012 mg/dL
  GLC: 215 mg/dL
  IP: 6.5 mg/dL
  K: 4.5 meq/L
  LDH: 51 IU/L
  Na: 138.8 meq/L
  PL: 137.4 mg/dL
  RALB: 4 g/dL
  TBIL: 0.3 mg/dL
  TC: 63 mg/dL
  TG: 126 mg/dL
  TP: 6.4 g/dL
  gamma-GTP: 1 IU/L
